# Laboratory results published in ChEMBL document CHEMBL1201862, “PubChem BioAssay data set” (2004).
# Active and inactive are the calls of the source.
# Assays:
# [1] = molecular target: T1, DNA repair and recombination protein RAD54-like (Homo sapiens, UniProt Q92698); experiment: inhibitors of human RAD54 branch migration, confirmation, biochemical, fluorescence, cherry-picked samples, dose series (AID 651657); format: functional
# T1 sequence (Q92698 whole entry): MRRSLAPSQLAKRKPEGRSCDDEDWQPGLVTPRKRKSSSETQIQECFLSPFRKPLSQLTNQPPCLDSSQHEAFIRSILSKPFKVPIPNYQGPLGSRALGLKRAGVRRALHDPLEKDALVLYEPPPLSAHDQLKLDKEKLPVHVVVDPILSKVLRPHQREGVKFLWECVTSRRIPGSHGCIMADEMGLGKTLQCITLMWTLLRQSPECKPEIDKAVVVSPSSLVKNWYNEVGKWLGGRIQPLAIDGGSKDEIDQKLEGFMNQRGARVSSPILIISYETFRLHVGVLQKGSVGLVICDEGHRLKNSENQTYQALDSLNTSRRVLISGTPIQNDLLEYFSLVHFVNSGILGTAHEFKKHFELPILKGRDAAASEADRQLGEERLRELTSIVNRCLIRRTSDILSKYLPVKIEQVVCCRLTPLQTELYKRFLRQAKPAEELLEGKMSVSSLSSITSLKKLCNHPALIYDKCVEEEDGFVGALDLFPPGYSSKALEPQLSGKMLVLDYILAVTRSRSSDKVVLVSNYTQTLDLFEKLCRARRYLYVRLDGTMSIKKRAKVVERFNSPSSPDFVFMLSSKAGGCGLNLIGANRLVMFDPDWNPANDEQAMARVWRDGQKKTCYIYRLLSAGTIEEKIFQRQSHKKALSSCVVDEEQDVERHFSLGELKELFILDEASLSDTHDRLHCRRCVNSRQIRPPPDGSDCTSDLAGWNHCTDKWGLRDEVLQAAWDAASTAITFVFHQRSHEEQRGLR
# [2] = molecular target: T2, Short transient receptor potential channel 4 (Mus musculus, UniProt Q9QUQ5); experiment: mouse TRPC4 channel inhibitors, dose response, cell-based, HEK293 TRPC4/mu-opioid, Fluo-4 calcium (AID 434942); format: functional;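 note: potency of inhibitors blocking the TRPC4 calcium response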
# T2 sequence (Q9QUQ5 whole entry): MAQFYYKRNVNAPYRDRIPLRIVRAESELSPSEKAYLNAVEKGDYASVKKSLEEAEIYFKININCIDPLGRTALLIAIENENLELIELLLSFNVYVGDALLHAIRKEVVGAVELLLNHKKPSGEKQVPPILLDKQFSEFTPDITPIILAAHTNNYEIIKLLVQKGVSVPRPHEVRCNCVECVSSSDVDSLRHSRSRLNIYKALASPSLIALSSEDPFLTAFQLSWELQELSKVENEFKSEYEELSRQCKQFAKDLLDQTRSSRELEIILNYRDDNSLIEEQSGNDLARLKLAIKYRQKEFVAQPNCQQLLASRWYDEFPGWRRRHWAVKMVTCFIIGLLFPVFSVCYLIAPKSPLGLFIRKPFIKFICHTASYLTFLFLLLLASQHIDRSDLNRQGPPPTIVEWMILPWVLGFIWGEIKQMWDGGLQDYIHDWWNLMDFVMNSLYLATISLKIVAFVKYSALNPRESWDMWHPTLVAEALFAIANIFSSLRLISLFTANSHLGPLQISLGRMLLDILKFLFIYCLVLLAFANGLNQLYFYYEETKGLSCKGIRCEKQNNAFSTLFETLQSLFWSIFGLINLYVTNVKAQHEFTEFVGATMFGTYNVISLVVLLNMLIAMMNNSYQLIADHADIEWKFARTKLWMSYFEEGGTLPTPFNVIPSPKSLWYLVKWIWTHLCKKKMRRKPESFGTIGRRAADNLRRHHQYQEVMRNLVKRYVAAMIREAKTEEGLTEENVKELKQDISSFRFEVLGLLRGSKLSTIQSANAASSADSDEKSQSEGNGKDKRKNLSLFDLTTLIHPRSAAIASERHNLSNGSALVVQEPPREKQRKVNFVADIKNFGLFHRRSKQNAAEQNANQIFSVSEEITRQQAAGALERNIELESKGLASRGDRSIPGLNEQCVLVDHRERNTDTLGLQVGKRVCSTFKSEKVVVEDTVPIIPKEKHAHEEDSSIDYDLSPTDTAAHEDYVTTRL
# [3] = molecular target: T3, Polyadenylate-binding protein 1 (Homo sapiens, UniProt P11940); experiment: PABP1 MLLE–PAM2 interaction inhibitors, dose response, miRNA deadenylation inhibitor project, biochemical, fluorescence polarization, Cy5-PAM2 peptide, secondary (AID 602260); format: functional; details: read-out: IC50_Mean
# T3 sequence (P11940 whole entry): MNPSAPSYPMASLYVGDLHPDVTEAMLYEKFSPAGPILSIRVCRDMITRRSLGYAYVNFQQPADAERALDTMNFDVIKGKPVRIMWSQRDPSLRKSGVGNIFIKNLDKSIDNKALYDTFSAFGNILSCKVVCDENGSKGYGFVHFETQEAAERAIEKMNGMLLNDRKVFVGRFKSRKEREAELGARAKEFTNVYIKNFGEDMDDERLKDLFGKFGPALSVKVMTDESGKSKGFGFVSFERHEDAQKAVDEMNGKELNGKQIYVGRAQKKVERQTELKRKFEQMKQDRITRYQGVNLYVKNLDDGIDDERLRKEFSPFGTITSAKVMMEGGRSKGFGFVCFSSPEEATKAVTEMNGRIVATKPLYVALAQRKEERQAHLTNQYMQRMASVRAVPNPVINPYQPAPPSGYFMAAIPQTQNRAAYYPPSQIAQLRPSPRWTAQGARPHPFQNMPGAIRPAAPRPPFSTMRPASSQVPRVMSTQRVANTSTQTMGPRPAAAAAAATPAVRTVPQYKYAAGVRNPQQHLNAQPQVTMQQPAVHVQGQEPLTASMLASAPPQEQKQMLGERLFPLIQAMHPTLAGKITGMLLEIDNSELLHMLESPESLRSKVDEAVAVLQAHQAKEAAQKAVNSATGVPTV
# [4] = molecular target: T3, Polyadenylate-binding protein 1; experiment: PABP1 MLLE–PAM2 binding inhibitor potency, dose response, biochemical, fluorescence polarization, FITC-PAM2 peptide (AID 602259); format: functional; details: read-out: IC50_Mean
# BJ [5] = experiment: cytotoxicity toward BJ-TERT fibroblasts, dose response, cell-based, RAS-independent, luminescence (AID 1933); format: functional; details: Homo sapiens
# BJ [6] = experiment: cells; format: functional, cell-based; details: Homo sapiens
# BJ [7] = experiment: cytotoxicity toward BJ-TERT-LT-ST fibroblasts, dose response, cell-based, RAS-independent, luminescence (AID 1935); format: functional; details: Homo sapiens;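 note: BJ fibroblasts immortalized with TERT plus LT and ST oncogenes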
# [8] = cytotoxicity toward DRD oncogenic fibroblasts, dose response, cell-based, non-viral oncogenic, luminescence (AID 1934); format: functional; details: Homo sapiens
# [9] = molecular target: T4, Replicative DNA helicase DnaB (Mycobacterium tuberculosis, UniProt P9WMR3); experiment: DnaB intein splicing inhibitors, dose response, biochemical, cell-free fluorescence (AID 449749); format: functional
# T4 sequence (P9WMR3 whole entry): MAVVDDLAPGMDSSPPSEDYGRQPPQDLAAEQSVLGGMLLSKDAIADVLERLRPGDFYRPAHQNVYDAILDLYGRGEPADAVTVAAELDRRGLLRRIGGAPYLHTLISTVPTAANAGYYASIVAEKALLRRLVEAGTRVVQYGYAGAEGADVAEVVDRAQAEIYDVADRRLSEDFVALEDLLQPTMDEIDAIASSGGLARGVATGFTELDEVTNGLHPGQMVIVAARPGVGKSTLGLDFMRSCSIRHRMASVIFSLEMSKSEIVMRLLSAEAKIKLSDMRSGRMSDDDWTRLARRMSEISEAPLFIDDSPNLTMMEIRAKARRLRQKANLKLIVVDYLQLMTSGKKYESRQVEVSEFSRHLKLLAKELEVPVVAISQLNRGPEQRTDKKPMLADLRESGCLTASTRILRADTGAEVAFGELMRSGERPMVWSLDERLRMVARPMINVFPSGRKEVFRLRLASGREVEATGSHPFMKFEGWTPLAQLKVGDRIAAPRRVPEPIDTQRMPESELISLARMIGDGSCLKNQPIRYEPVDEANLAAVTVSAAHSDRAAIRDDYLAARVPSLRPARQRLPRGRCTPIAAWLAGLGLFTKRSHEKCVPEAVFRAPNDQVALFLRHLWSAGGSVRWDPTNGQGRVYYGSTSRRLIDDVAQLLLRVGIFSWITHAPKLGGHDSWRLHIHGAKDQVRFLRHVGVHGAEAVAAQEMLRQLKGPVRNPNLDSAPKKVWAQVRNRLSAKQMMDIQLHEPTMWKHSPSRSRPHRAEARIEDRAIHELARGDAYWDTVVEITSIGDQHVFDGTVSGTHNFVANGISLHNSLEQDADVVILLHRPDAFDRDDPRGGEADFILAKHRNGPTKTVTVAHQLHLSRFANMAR
# Protein RecA = molecular target: T5, Protein RecA (Mycobacterium tuberculosis, UniProt P9WHJ3); experiment: Fluorescence Cell-Free Homogeneous Dose Retest to Identify Inhibitors of RecA-Intein Splicing Activity. [Related pubchem assays (depositor defined):AID2097, AID2223, AID489010, AID492950]; format: functional
# T5 sequence (P9WHJ3 whole entry): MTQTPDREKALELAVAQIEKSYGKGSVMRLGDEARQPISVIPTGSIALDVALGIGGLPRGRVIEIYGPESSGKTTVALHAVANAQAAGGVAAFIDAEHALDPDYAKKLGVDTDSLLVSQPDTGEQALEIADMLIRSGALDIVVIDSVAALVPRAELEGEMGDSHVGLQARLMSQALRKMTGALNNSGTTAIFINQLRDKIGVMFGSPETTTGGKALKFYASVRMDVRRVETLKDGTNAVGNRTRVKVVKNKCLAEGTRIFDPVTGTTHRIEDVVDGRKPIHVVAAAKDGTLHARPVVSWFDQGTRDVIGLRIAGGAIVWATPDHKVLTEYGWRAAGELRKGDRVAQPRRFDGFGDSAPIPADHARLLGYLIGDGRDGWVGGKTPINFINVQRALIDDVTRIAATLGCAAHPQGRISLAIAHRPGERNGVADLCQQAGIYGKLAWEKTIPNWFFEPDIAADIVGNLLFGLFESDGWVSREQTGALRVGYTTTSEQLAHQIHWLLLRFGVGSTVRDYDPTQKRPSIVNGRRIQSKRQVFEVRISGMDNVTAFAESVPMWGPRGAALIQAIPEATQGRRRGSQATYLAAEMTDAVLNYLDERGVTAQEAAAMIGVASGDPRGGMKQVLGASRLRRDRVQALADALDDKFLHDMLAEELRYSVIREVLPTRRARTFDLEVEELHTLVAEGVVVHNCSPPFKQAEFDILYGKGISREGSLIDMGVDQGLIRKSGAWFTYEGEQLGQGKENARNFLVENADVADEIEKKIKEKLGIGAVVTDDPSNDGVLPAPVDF
# [10] = Luminescence Cell-Based Dose Retest to Confirm Inhibitors of Cancer Stem Cells. [Related pubchem assays (depositor defined):AID2717, AID2721]; format: functional; details: Homo sapiens
# [11] = molecular target: T6, Heat shock factor protein 1 (Mus musculus, UniProt P38532); experiment: HSF1 potentiators in luciferase reporter cells, confirmation, cell-based, NIH3T3, luminescence, dose retest (AID 435004); format: functional;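 note: stress induced by proteasome inhibitor MG132 added 30 min after compound; luciferase reporter driven by HSF1 response element in NIH3T3 cells; actives raise luminescence as potentiators of the MG132 stress response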
# T6 sequence (P38532 whole entry): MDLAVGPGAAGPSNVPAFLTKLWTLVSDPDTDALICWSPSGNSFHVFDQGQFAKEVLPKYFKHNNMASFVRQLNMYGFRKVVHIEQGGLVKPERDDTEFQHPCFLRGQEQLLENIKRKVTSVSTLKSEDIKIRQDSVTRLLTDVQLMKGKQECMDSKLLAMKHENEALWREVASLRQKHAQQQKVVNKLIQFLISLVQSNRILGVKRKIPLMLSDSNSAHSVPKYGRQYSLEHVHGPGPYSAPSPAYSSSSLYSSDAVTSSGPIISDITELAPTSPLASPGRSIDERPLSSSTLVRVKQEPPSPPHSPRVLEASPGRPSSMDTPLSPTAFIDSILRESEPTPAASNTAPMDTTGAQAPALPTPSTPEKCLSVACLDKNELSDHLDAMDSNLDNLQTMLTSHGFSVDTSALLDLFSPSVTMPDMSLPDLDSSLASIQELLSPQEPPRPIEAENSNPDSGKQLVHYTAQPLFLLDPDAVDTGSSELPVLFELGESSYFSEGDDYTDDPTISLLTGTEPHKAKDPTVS
# Genome polyprotein = Genome polyprotein (dengue virus type 2, UniProt P29990); experiment: Dengue-2 NS5 methyltransferase inhibitors, primary screen, biochemical, confirmation dose response (AID 588689); format: functional
# Sequence of Genome polyprotein (P29990 2492-3391 limits assumed): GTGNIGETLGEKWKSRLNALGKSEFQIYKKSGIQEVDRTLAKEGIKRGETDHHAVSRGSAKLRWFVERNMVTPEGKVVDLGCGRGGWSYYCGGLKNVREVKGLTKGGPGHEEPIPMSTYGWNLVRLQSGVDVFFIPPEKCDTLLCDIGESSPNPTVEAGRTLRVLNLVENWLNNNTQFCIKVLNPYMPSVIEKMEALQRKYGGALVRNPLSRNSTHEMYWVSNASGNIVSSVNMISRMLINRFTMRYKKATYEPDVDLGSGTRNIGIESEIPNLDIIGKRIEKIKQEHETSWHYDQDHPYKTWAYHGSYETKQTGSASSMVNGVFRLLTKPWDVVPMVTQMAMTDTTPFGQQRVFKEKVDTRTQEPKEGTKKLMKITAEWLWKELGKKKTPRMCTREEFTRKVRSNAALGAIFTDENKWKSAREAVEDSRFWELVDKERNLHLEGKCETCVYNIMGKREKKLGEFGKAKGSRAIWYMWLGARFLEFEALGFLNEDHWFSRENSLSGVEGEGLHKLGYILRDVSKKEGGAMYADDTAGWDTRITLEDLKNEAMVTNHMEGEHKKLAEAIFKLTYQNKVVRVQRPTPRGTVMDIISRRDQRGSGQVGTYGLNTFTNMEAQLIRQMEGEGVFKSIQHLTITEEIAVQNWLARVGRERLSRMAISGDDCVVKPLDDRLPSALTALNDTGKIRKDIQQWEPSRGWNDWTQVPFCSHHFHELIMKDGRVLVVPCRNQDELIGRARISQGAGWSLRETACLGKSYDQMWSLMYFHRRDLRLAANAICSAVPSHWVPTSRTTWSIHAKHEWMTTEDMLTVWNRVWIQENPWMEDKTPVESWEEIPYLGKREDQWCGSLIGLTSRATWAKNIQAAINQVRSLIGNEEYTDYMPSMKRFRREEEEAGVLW
# [12] = growth suppression of PTEN-null colon cells, dose response, cell-based, HCT116 PTEN knockout (AID 1047); format: functional;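 note: HCT116 colon tumor cells with PTEN knocked out; cells exposed to compound for 60 hours before readout; potency for loss of cell viability measured by luminescence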
# [13] = growth suppression of beta-catenin-knockout colon cells, dose response, cell-based, HCT116, human colon tumor (AID 1045); format: functional;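 note: HCT116 colon tumor cells with beta catenin knocked out; cells exposed to compound for 60 hours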
# [14] = molecular target: T7, DNA repair protein RAD52 homolog (Homo sapiens, UniProt P43351); format: functional, biochemical
# T7 sequence (P43351 whole entry): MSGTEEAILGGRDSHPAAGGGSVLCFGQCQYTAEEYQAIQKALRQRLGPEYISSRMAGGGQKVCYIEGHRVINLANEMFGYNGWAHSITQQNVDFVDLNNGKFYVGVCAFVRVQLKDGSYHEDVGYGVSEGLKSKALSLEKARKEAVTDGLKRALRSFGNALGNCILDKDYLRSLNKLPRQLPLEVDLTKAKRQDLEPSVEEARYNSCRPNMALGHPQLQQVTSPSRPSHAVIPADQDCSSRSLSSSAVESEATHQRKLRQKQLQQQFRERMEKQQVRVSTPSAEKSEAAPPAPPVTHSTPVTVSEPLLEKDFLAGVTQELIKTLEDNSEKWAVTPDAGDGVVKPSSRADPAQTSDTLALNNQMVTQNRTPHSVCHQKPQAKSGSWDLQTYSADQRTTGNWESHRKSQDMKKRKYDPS
compound,measurement,setting,value
Cc1c(O)c(CN(C)C)cc2c1oc(=O)c1ccccc12,AC50,[1],35.5 µM (active)
O=C(NCCN1CCOCC1)c1ccc2c(c1)N(Cc1ccc(F)cc1)C(=O)CS2,EC50,[2],4.73 µM (active)
CCC(O)C1CCN(Cc2cn(-c3ccc(OC)cc3)nc2-c2cccc(F)c2)CC1 (stereo not given),EC50,[2],10.6 µM (active)
CCOc1ccc(Cn2c(SCCCCC#N)nc3c2c(=O)n(C)c(=O)n3C)cc1OCC,IC50,[3],> 66 µM (inactive)
same,IC50,[4],> 66 µM (inactive)
O=C(NC1CCCC1)C(c1ccc(Cl)cc1)N(Cc1ccc(F)cc1)C(=O)CCl (stereo not given),EC50,BJ [5],7.08 µM (inconclusive)
same,EC50,BJ [6],16.4 µM (active)
same,EC50,BJ [7],> 150 µM (inconclusive)
same,EC50,[8],10.5 µM (inconclusive)
same,AC50,[9],1.16 µM (active)
same,EC50,Protein RecA,1.07 µM (active)
Brc1ccc(CN2C3=NCCCN3c3ccccc32)cc1,EC50,[2],0.531 µM (active)
CCOC(=O)c1cc(-c2ccc(OC)cc2)nc2c1c(C)nn2CCC(N)=S,IC50,[3],> 66 µM (inactive)
same,IC50,[4],> 66 µM (inactive)
Cc1ccc(C(=O)NC(=S)Nc2c(C)ccc3nsnc23)cc1,EC50,[2],5.96 µM (active)
CCn1cc(CN2CCCC(CO)(Cc3cccc(Cl)c3)C2)cn1 (stereo not given),EC50,[2],5.96 µM (active)
CCCn1nc([N+](=O)[O-])c(C(C#N)c2nc3ccccc3o2)c(Cl)c1=O (stereo not given),AC50,[10],4.55 µM (active)
same,EC50,[2],6.68 µM (active)
same,EC50,[11],> 260 µM (inactive)
same,IC50,Genome polyprotein,34.7 µM (active)
Cc1nc(SCC(=O)c2cc3ccccc3oc2=O)c(C#N)c(-c2ccccc2)c1C(=O)Nc1ccccc1,EC50,[12],8.4 µM (active)
same,EC50,[13],7.01 µM (active)
CCOC(=O)c1cnc2ccc(OC)cc2c1Nc1ccc(N2CCN(C)CC2)cc1,EC50,[11],> 260 µM (inactive)
same,AC50,[1],34 µM (active)
CN(C)CCCNc1nc2cc(-c3ccc4c(ccn4C)c3)sc2c(=O)n1C,AC50,[1],28.7 µM (active)
same,AC50,[14],4.02 µM (active)
Cc1ccc(C)c2nc3sc(C(=O)O)cc3cc12,EC50,[2],5.31 µM (active)
CCC(C)[C@H](NC(=O)C1CC(=O)N(c2ccc3c(c2)OCO3)C1)C(=O)NC1CCCCC1 (stereo not given in full),IC50,[3],> 66 µM (inactive)
same,IC50,[4],54.9 µM (inactive)
CCCCN(C)CCNC(=O)c1cc2cc3ccc(OC)cc3nc2o1,AC50,[1],50.9 µM (active)
